Format in all cases: functional
The test system of assay [1] is Escherichia coli. Nature of the assay: Antimicrobial activity against wild-type Escherichia coli K-12 BW-25113 at 0.15 ug after overnight incubation in presence of 1000 uM Fe3-cation.
For assay [2], the system named is Pseudomonas aeruginosa. Nature of the assay: Antimicrobial activity against Pseudomonas aeruginosa BIG 0037 at 5 ug/disk after 18 to 20 hrs by disk diffusion assay. To be noted: read-out: IZ.
In assay [3] the test system is Escherichia coli. The experiment in a line: Antimicrobial activity against isogenic Escherichia coli K-12 […] mutant at 0.15 ug after overnight incubation in presence of 1000 uM Fe3-cation.
Assay [4] has as its system Staphylococcus aureus. Nature of the assay: Antimicrobial activity against ciprofloxacin and methicillin-resistant Staphylococcus aureus HG-1 at 5 ug/disk after 18 to 20 hrs by disk diffusion assay. The settings on record: read-out: IZ. In general terms: In agar diffusion tests the substance spreads into inoculated agar from a disc or well.
Assay [5] concerns Escherichia coli. Nature of the assay: Antimicrobial activity against ciprofloxacin-resistant Escherichia coli BIG 0046 at 5 ug/disk after 18 to 20 hrs by disk diffusion assay. The settings on record: read-out: IZ.
Assay [6] has as its system Staphylococcus epidermidis. Nature of the assay: Antimicrobial activity against Staphylococcus epidermidis NCTC 11047 at 5 ug/disk after 18 to 20 hrs by disk diffusion assay. The settings on record: read-out: IZ.
The test system of assay [7] is Escherichia coli. Nature of the assay: Antimicrobial activity against isogenic Escherichia coli K-12 […] mutant at 0.15 ug after overnight incubation in presence of 1 uM Fe3-cation.
Assay [8] deals with Staphylococcus aureus. The experiment in a line: Antimicrobial activity against ciprofloxacin and epidemic methicillin-resistant Staphylococcus aureus BIG 0052 at 5 ug/disk after 18 to 20 hrs by disk diffusion assay. The settings on record: read-out: IZ.
Assay [9] concerns Pseudomonas aeruginosa. Nature of the assay: Antimicrobial activity against Pseudomonas aeruginosa NCTC 10662 at 5 ug/disk after 18 to 20 hrs by disk diffusion assay. The settings on record: read-out: IZ.
The next assay relates to Burkholderia cepacia. The experiment in a line: Antimicrobial activity against Burkholderia cepacia NCTC 10744 at 5 ug/disk after 18 to 20 hrs by disk diffusion assay. The settings on record: read-out: IZ.
Assay [10] relates to Staphylococcus aureus. Nature of the assay: Antimicrobial activity against Staphylococcus aureus NCTC 10399 at 5 ug/disk after 18 to 20 hrs by disk diffusion assay. The settings on record: read-out: IZ.
Assay [11] concerns Staphylococcus haemolyticus. Nature of the assay: Antimicrobial activity against Staphylococcus haemolyticus NCTC 11042 at 5 ug/disk after 18 to 20 hrs by disk diffusion assay. The settings on record: read-out: IZ.
For assay [12], the system named is Escherichia coli. Nature of the assay: Antimicrobial activity against ciprofloxacin-resistant Escherichia coli BIG 0051 at 5 ug/disk after 18 to 20 hrs by disk diffusion assay. The settings on record: read-out: IZ.
The subject of assay [13] is Pseudomonas aeruginosa. The experiment in a line: Antimicrobial activity against Pseudomonas aeruginosa NCTC 6749 at 5 ug/disk after 18 to 20 hrs by disk diffusion assay. The settings on record: read-out: IZ.
Assay [14] concerns Pseudomonas aeruginosa. The experiment in a line: Antimicrobial activity against Pseudomonas aeruginosa BIG 0039 at 5 ug/disk after 18 to 20 hrs by disk diffusion assay. The settings on record: read-out: IZ.
The test system of assay [15] is Staphylococcus epidermidis. Nature of the assay: Antimicrobial activity against Staphylococcus epidermidis NCTC 2749 at 5 ug/disk after 18 to 20 hrs by disk diffusion assay. The settings on record: read-out: IZ.
Assay [16] deals with Escherichia coli. Nature of the assay: Antimicrobial activity against Escherichia coli NCTC 10418 at 5 ug/disk after 18 to 20 hrs by disk diffusion assay. To be noted: read-out: IZ.
In assay [17] the test system is Staphylococcus aureus. The experiment in a line: Antimicrobial activity against Staphylococcus aureus NCTC 6571 at 5 ug/disk after 18 to 20 hrs by disk diffusion assay. The settings on record: read-out: IZ.
Assay [18] concerns Escherichia coli. Nature of the assay: Antimicrobial activity against wild-type Escherichia coli K-12 BW-25113 at 0.15 ug after overnight incubation in presence of 1 uM Fe3-cation.
The test system of assay [19] is Staphylococcus aureus. The experiment in a line: Antimicrobial activity against ciprofloxacin and epidemic methicillin-resistant Staphylococcus aureus NCTC 13143 at 5 ug/disk after 18 to 20 hrs by disk diffusion assay. The settings on record: read-out: IZ.
Assay [20] deals with Staphylococcus aureus. Nature of the assay: Antimicrobial activity against epidemic methicillin-resistant Staphylococcus aureus NCTC 13142 at 5 ug/disk after 18 to 20 hrs by disk diffusion assay. To be noted: read-out: IZ.
A further assay has as its system Serratia marcescens. Nature of the assay: Antimicrobial activity against Serratia marcescens NCTC 1377 at 5 ug/disk after 18 to 20 hrs by disk diffusion assay. The settings on record: read-out: IZ.
Assay [21] concerns Pseudomonas aeruginosa. Nature of the assay: Antimicrobial activity against Pseudomonas aeruginosa BIG 0063 at 5 ug/disk after 18 to 20 hrs by disk diffusion assay. The settings on record: read-out: IZ.

This is an account of results in ChEMBL document CHEMBL1152871, “Synthesis of citrate-ciprofloxacin conjugates” (2009).

SMILES strings stand for the structures.

`O=C(O)CC(O)(CC(=O)N1CCN(c2cc3c(cc2F)c(=O)c(C(=O)O)cn3C2CC2)CC1)C(=O)O` (centres undefined): the “inhibition zone (IZ)” value is 1.3 cm in the assay with Escherichia coli [1], 0.8 cm in the assay with Escherichia coli [3], 0.6 cm with Escherichia coli [7] and 1.1 cm in the assay with Escherichia coli [18]. Moreover, the zone of inhibition at 5 µg/disc with Pseudomonas aeruginosa [2] came out at 25 mm; in the assay with Staphylococcus aureus [4] it was 0 mm; with Escherichia coli [5], 0 mm; in assay [6], 28 mm; in the assay with Staphylococcus aureus [8], 0 mm; in the assay with Pseudomonas aeruginosa [9] it was 23 mm. The zone of inhibition at 5 µg/disc in the assay on Burkholderia cepacia came to 18 mm; in the assay on Staphylococcus aureus [10] it was 20 mm; in assay [11], 30 mm; in the assay with Escherichia coli [12], 0 mm; in the assay on Pseudomonas aeruginosa [13], 23 mm; with Pseudomonas aeruginosa [14] it was 18 mm. The zone of inhibition at 5 µg/disc in assay [15] was 28 mm; in the assay on Escherichia coli [16], 30 mm; with Staphylococcus aureus [17], 17 mm.

Turning to `O=C(O)CC(O)(CC(=O)O)C(=O)N1CCN(c2cc3c(cc2F)c(=O)c(C(=O)O)cn3C2CC2)CC1`, the zone of inhibition at 5 µg/disc with Staphylococcus aureus [19] came out at 0 mm; in the assay with Pseudomonas aeruginosa [2] it was 24 mm; in the assay on Staphylococcus aureus [4], 0 mm; in the assay with Escherichia coli [5], 0 mm; in [6], 21 mm; in the assay with Staphylococcus aureus [20], 21 mm. Besides, the zone of inhibition at 5 µg/disc with Staphylococcus aureus [8] turned out to be 0 mm; with Burkholderia cepacia, 18 mm; in the assay on Staphylococcus aureus [10] it was 23 mm; in assay [11], 20 mm; in the assay with Escherichia coli [12], 0 mm; in the assay with Serratia marcescens, 25 mm. For the same compound, the zone of inhibition at 5 µg/disc was determined as 24 mm in the assay with Pseudomonas aeruginosa [21], 24 mm in assay [15], 27 mm in the assay on Escherichia coli [16] and 20 mm with Staphylococcus aureus [17].

As for `O=C(O)c1cn(C2CC2)c2cc(N3CCNCC3)c(F)cc2c1=O` [CIPROFLOXACIN], the zone of inhibition at 5 µg/disc is 0 mm with Staphylococcus aureus [19]; 31 mm in the assay on Pseudomonas aeruginosa [2]; 0 mm with Staphylococcus aureus [4]; 0 mm in the assay on Escherichia coli [5]; 25 mm in [6]; 22 mm with Staphylococcus aureus [20]. Besides, the zone of inhibition at 5 µg/disc turned out to be 0 mm in the assay on Staphylococcus aureus [8]; 31 mm in the assay on Pseudomonas aeruginosa [9]; 22 mm in the assay with Burkholderia cepacia; 27 mm in the assay on Staphylococcus aureus [10]; 25 mm in assay [11]; 0 mm in the assay with Escherichia coli [12]. Besides, the zone of inhibition at 5 µg/disc amounted to 35 mm in the assay with Pseudomonas aeruginosa [13]; 30 mm with Serratia marcescens; 32 mm with Pseudomonas aeruginosa [21]; 27 mm in the assay on Pseudomonas aeruginosa [14]; 29 mm in assay [15]; 32 mm with Escherichia coli [16]. Also, in the assay with Staphylococcus aureus [17], the zone of inhibition at 5 µg/disc came to 24 mm.
